Results on 42 compounds are retold here after patent publication US20260258050A1, “IMMUNOMODULATOR” (HITGEN INC., priority 2023, published 2026).

pIC50: −log10 of the molar value.

This test addresses T1, Human IL-17AF (Homo sapiens, UniProt Q16552+Q96PD4).
T1 construct: purchased Sino Biological Inc. CT047-H08H
T1 sequence (Q16552 24-155): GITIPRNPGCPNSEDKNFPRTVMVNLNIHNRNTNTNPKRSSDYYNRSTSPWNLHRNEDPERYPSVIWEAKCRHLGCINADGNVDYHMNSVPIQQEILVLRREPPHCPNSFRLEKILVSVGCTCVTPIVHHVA
T1 sequence (Q96PD4 31-163): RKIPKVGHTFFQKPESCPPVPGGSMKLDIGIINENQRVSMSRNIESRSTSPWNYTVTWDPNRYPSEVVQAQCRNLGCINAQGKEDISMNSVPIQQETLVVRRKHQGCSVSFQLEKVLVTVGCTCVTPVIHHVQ
Nature of the test: IL-17AF ELISA (competitive ELISA, IL-17AF/IL-17Ra receptor-ligand binding). The conditions noted are these: human IL-17AF coated plate, human IL-17Ra, read-out: IC50, inhibitory activity of compounds on human IL-17AF. The method, boiled down:
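Plates coated with 0.625 μg/ml human IL-17AF in PBS pH 7.4 (37 °C, 30 min) and milk-blocked. Compounds pre-incubated with coated IL-17AF for 10 min at 25 °C, then IL-17Ra added (as 100 nM solution) for 30 min. Bound receptor detected by anti-Fc HRP/TMB at 450 nm; IC50 from variable-slope normalized fit versus DMSO control and blank.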
For orientation: pIC50 means the IC50 on a negative log10 scale, so that one unit is a factor of ten. As for `Cc1[nH]nc2c1-c1cc(F)c(NC(=O)[C@@H](NC(=O)c3ccnn3CCC(O)C(F)(F)F)C(C3CC3)C3CC3)cc1COCC2` (stereo partly drawn) [compound 81], the pIC50 is no less than 7.00.

In the case of `Cc1[nH]nc2c1-c1cnc(NC(=O)[C@@H](NC(=O)/C(F)=C\C(C)C)C(C3CC3)C3CC3)cc1COCC2` [compound 238], the pIC50 is 6.30 to 7.00.

On to `Cc1[nH]nc2c1-c1cc(F)c(NC(=O)[C@@H](NC(=O)c3ccnn3CC3COC3)C(C3CC3)C3CC3)cc1COCC2` [compound 115], for which the pIC50 was 6.30 to 7.00.

For `Cc1[nH]nc2c1-c1cc(F)c(NC(=O)[C@@H](NC(=O)c3ccnn3CCCF)C(C3CC3)C3CC3)cc1CN(C1CC1)CC2` [compound 218], the negative logarithm of the IC50 (pIC50) is no less than 7.00.

Consider `CCCn1nccc1C(=O)N[C@H](C(=O)Nc1cc2c(cc1F)-c1c(n[nH]c1C)CCOC2)C(C1CC1)C1CC1` [compound 62], for which the negative logarithm of the IC50 (pIC50) is no less than 7.00.

In the case of `CCOCCn1nccc1C(=O)N[C@H](C(=O)Nc1cc2c(cc1F)-c1c(n[nH]c1C)CCOC2)C(C1CC1)C1CC1` [compound 100], the negative logarithm of the IC50 (pIC50) was no less than 7.00.

On to `CCn1nccc1C(=O)N[C@H](C(=O)Nc1ccc2c(c1)CNC(=O)Cc1n[nH]c(C)c1-2)C(C1CC1)C1CC1` [compound 28], for which the pIC50 is no less than 7.00.

Take `Cc1[nH]nc2c1-c1cnc(NC(=O)[C@@H](NC(=O)c3conc3C(C)C)C(C3CC3)C3CC3)cc1CN(C1CC1)CC2` [compound 214]: the pIC50 was no less than 7.00.

As to `Cc1[nH]nc2c1-c1cnc(NC(=O)[C@@H](NC(=O)c3ccnn3C(C)C)C(C3CC3)C3CC3)cc1CN(CC(F)F)CC2` [compound 202], the negative-log IC50 (pIC50) was 6.30 to 7.00.

`Cc1[nH]nc2c1-c1cc(F)c(NC(=O)[C@@H](NC(=O)c3ccnn3C(C)C)C(C3CC3)C3CC3)cc1CN(C1CCOCC1)CC2` [compound 174]: the pIC50 is 6.30 to 7.00.

On to `Cc1[nH]nc2c1-c1cc(F)c(NC(=O)[C@@H](NC(=O)c3ccnn3CC(C)(F)F)C(C3CC3)C3CC3)cc1COCC2` [compound 87], for which the pIC50 is 6.30 to 7.00.

Consider `Cc1[nH]nc2c1-c1cc(F)c(NC(=O)[C@@H](NC(=O)c3ccnn3CCC(F)F)C(C3CC3)C3CC3)cc1COCC2` [compound 65], for which the negative logarithm of the IC50 (pIC50) is no less than 7.00.

As for `Cc1[nH]nc2c1-c1cnc(NC(=O)[C@@H](NC(=O)c3ccnn3C(C)C)C(C3CC3)C3CC3)cc1CN(CC(C)(F)F)C(=O)C2` [compound 193], the pIC50 was no less than 7.00.

`Cc1[nH]nc2c1-c1cc(F)c(NC(=O)[C@@H](NC(=O)c3ccnn3C(C)C)C(C3CC3)C3CC3)cc1COCC2` [compound 15]: the pIC50 is no less than 7.00.

In the case of `CSCCn1nccc1C(=O)N[C@H](C(=O)Nc1cc2c(cc1F)-c1c(n[nH]c1C)CCOC2)C(C1CC1)C1CC1` [compound 61], the negative logarithm of the IC50 (pIC50) was no less than 7.00.

For the compound `[2H]C([2H])([2H])C([2H])(n1nccc1C(=O)N[C@H](C(=O)Nc1cc2c(cn1)-c1c(n[nH]c1C)CCOC2)C(C1CC1)C1CC1)C([2H])([2H])[2H]` [compound 54], the pIC50 is no less than 7.00.

For the compound `Cc1[nH]nc2c1-c1cc(F)c(NC(=O)[C@@H](NC(=O)c3ccnn3C(C)C)C(C3CC3)C3CC3)cc1CN(C1CCOCC1)C(=O)C2` [compound 167], the negative-log IC50 (pIC50) is 6.30 to 7.00.

On to `Cc1[nH]nc2c1-c1cc(F)c(NC(=O)[C@@H](NC(=O)c3ccnn3C(C)CF)C(C3CC3)C3CC3)cc1COCC2` (single isomer, unassigned) [compound 42b], for which the negative logarithm of the IC50 (pIC50) is no less than 7.00.

As to `Cc1[nH]nc2c1-c1cc(F)c(NC(=O)[C@@H](NC(=O)c3ccnn3CCOC(C)(C)C)C(C3CC3)C3CC3)cc1COCC2` [compound 113], the pIC50 is 6.30 to 7.00.

Turning to `Cc1[nH]nc2c1-c1cnc(NC(=O)[C@@H](NC(=O)c3conc3C3CC3)C(C3CC3)C3CC3)cc1COCC2` [compound 241], the negative-log IC50 (pIC50) was 6.30 to 7.00.

With `Cc1[nH]nc2c1-c1cc(F)c(NC(=O)[C@@H](NC(=O)c3ccnn3CC3(C#N)CC3)C(C3CC3)C3CC3)cc1COCC2` [compound 114], the negative-log IC50 (pIC50) is no less than 7.00.

As for `Cc1[nH]nc2c1-c1cc(F)c(NC(=O)[C@@H](NC(=O)c3ccnn3C(C)C)C(C3CC3)C3CC3)cc1CN(C1CCC1)C(=O)C2` [compound 170], the negative logarithm of the IC50 (pIC50) is no less than 7.00.

For `COCC(COC)n1nccc1C(=O)N[C@H](C(=O)Nc1cc2c(cc1F)-c1c(n[nH]c1C)CCOC2)C(C1CC1)C1CC1` [compound 99], the negative logarithm of the IC50 (pIC50) was 6.30 to 7.00.

For the compound `CCc1nocc1C(=O)N[C@H](C(=O)Nc1cc2c(cn1)-c1c(n[nH]c1C)CCOC2)C(C1CC1)C1CC1` [compound 240], the pIC50 is 6.30 to 7.00.

On to `CC(=O)N1CCc2n[nH]c(C)c2-c2cnc(NC(=O)[C@@H](NC(=O)c3ccnn3C(C)C)C(C3CC3)C3CC3)cc2C1` [compound 196], for which the pIC50 is 6.30 to 7.00.

Regarding `Cc1[nH]nc2c1-c1cc(F)c(NC(=O)[C@@H](NC(=O)c3ccnn3C(C)C)C3CCCCC3)cc1COCC2` [compound 48], the pIC50 is 6.30 to 7.00.

`Cc1[nH]nc2c1-c1ccc(NC(=O)[C@@H](NC(=O)c3ccnn3C(C)C)C(C3CC3)C3CC3)cc1CNC(=O)C2` [compound 27]: the pIC50 was 6.30 to 7.00.

In the case of `Cc1[nH]nc2c1-c1ccc(NC(=O)[C@@H](NC(=O)c3ccnn3C(C)C)C(C3CC3)C3CC3)cc1CN(C)C(=O)C2` [compound 22], the negative logarithm of the IC50 (pIC50) was no less than 7.00.

`Cc1[nH]nc2c1-c1cnc(NC(=O)[C@@H](NC(=O)c3conc3C(C)C)C(C3CC3)C3CC3)cc1COCC2` [compound 234]: the negative-log IC50 (pIC50) is 6.30 to 7.00.

Take `[2H]C([2H])(C1CC1)n1nccc1C(=O)N[C@H](C(=O)Nc1cc2c(cc1F)-c1c(n[nH]c1C)CCOC2)C(C1CC1)C1CC1` [compound 76]: the pIC50 was no less than 7.00.

Take `Cc1[nH]nc2c1-c1cc(F)c(NC(=O)[C@@H](NC(=O)c3ccnn3CC3CCC3)C(C3CC3)C3CC3)cc1COCC2` [compound 60]: the negative-log IC50 (pIC50) is no less than 7.00.

Regarding `Cc1[nH]nc2c1-c1cc(F)c(NC(=O)[C@@H](NC(=O)c3ccnn3CCOC3CC3)C(C3CC3)C3CC3)cc1COCC2` [compound 102], the pIC50 was 6.30 to 7.00.

As to `CCn1nccc1C(=O)N[C@H](C(=O)Nc1ccc2c(c1)CN(C)C(=O)Cc1n[nH]c(C)c1-2)C(C1CC1)C1CC1` [compound 23], the pIC50 is no less than 7.00.

With `Cc1[nH]nc2c1-c1cc(F)c(NC(=O)[C@@H](NC(=O)c3ccnn3C(C)C3CC3)C(C3CC3)C3CC3)cc1COCC2` (single isomer, unassigned) [compound 41b], the pIC50 is no less than 7.00.

For `Cc1[nH]nc2c1-c1cc(F)c(NC(=O)[C@@H](NC(=O)c3ccnn3C[C@@H]3C[C@H]3F)C(C3CC3)C3CC3)cc1COCC2` [compound 101], the negative logarithm of the IC50 (pIC50) was no less than 7.00.

In the case of `CCn1nccc1C(=O)N[C@H](C(=O)Nc1cc2c(cc1F)-c1c(n[nH]c1C)CCOC2)C(C1CC1)C1CC1` [compound 16], the pIC50 is 6.30 to 7.00.

Turning to `[2H]C([2H])([2H])C([2H])(n1nccc1C(=O)N[C@H](C(=O)Nc1ccc2c(c1)COCCc1n[nH]c(C)c1-2)C(C1CC1)C1CC1)C([2H])([2H])[2H]` [compound 52], the negative-log IC50 (pIC50) was 6.30 to 7.00.

For the compound `Cc1[nH]nc2c1-c1ccc(NC(=O)[C@@H](NC(=O)c3ccnn3C)C(C3CC3)C3CC3)cc1COCC2` [compound 2], the pIC50 was no less than 7.00.

Turning to `Cc1[nH]nc2c1-c1cc(F)c(NC(=O)[C@@H](NC(=O)c3ccnn3CCC(F)(F)F)C(C3CC3)C3CC3)cc1COCC2` [compound 88], the pIC50 is 6.30 to 7.00.

Consider `Cc1[nH]nc2c1-c1cc(F)c(NC(=O)[C@@H](NC(=O)c3cnnn3CCOC(F)F)C(C3CC3)C3CC3)cc1COCC2` [compound 108], for which the negative logarithm of the IC50 (pIC50) was 6.30 to 7.00.

Regarding `Cc1[nH]nc2c1-c1cnc(NC(=O)[C@@H](NC(=O)c3ccnn3CCCF)C(C3CC3)C3CC3)cc1COCC2` [compound 124], the negative logarithm of the IC50 (pIC50) is 6.30 to 7.00.

As for `Cc1[nH]nc2c1-c1cnc(NC(=O)[C@@H](NC(=O)c3ccnn3C(C)C)C(C3CC3)C3CC3)cc1CN(CC(F)F)C(=O)C2` [compound 192], the pIC50 was no less than 7.00.
